The record followed here is ChEMBL document CHEMBL1201862, “PubChem BioAssay data set” (2004).

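Values below derive from 48-hour exposures of cells grown in 96-well plates, with endpoints linearly interpolated between the two concentrations bracketing the appropriate inhibition level. At the GI50, growth is halved.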 Activity calls are given as the source filed them. No stated cut-off is given here; in the data, active = GI50 up to about 1.1 µM and inactive = higher.

Some test systems named below: A549; CAKI-1; HCT-116; HCT-15; HL-60; HOP-62; HT-29; IGROV-1; K562; KM12; OVCAR-5; RPMI-8226; SF-268; SK-MEL-28; SK-MEL-5; SW-620; UACC-62; NCI-H522; SK-MEL-2; HOP-92.
Experiment in all cases: inhibition of tumour cell growth, NCI panel, 48 h

As to `COc1ccc(-c2c3c(nc4nc(SCC(=O)c5ccc(Br)cc5)nc(N)c24)CCCC3)cc1OC`, the GI50 with A549 was > 100 µM (inactive); in the assay on CAKI-1, 79.6 µM (inactive); with HCT-116 it was > 100 µM (inactive); with HCT-15, more than 100 µM; in the assay with HL-60, 90.6 µM (inactive); in the assay on HOP-62, 58.6 µM (inactive). The GI50 with HT-29 was 41.4 µM (inactive); in the assay with IGROV-1 it was > 100 µM (inactive); in the assay with K562 it was > 100 µM (inactive); with KM12, > 100 µM (inactive); with OVCAR-5, > 100 µM (inactive); in the assay with RPMI-8226 it was 64.1 µM (inactive). For the same molecule, the GI50 in the assay with SF-268 is 71.9 µM (inactive); in the assay with SK-MEL-28, 64 µM (inactive); in the assay on SK-MEL-5, 10.1 µM (inactive); in the assay with SW-620 it was 74.5 µM (inactive); with UACC-62 it was > 100 µM (inactive).

On to `Cc1nn(-c2ccccc2)c(S)c1C(=O)c1ccccc1`, for which the GI50 in the assay on A549 was 32.2 µM (inactive); with CAKI-1, > 100 µM (inactive); with HCT-15, 34.6 µM; in the assay on HL-60, 32.1 µM (inactive); in the assay with HT-29 it was 10 µM (inactive); in the assay on IGROV-1 it was 51.2 µM (inactive). Also, the GI50 was 39.8 µM (inactive) in the assay with K562; 33 µM (inactive) with KM12; 36.6 µM (inactive) with NCI-H522; 62.2 µM (inactive) in the assay on OVCAR-5; 19.1 µM (inactive) in the assay on RPMI-8226; 51.1 µM (inactive) in the assay with SF-268. Further, the GI50 in the assay on SK-MEL-28 is 33.5 µM (inactive); with SK-MEL-2 it was > 100 µM (inactive); in the assay on SK-MEL-5, 28.8 µM (inactive); in the assay on SW-620 it was 32.6 µM (inactive); with UACC-62, 47.1 µM (inactive).

Turning to `COc1ccc(/C=N/n2cnc3c(c2=O)SC(=C(C#N)C#N)N3c2ccccc2)cc1`, the GI50 in the assay on A549 was > 100 µM (inactive); in the assay with HCT-116, > 100 µM (inactive); with HL-60, > 100 µM (inactive); with HOP-62, 86.5 µM (inactive); in the assay on HOP-92, 38.8 µM (inactive); in the assay on HT-29 it was > 100 µM (inactive). For the same molecule, the GI50 in the assay with IGROV-1 is > 100 µM (inactive); in the assay on K562, > 100 µM (inactive); in the assay with KM12, > 100 µM (inactive); in the assay on NCI-H522 it was 56.2 µM (inactive); in the assay with OVCAR-5, > 100 µM (inactive); in the assay with RPMI-8226, > 100 µM (inactive). Also, the GI50 is 41.1 µM (inactive) in the assay with SF-268; 90.8 µM (inactive) in the assay on SK-MEL-28; > 100 µM (inactive) in the assay on SK-MEL-5; > 100 µM (inactive) with SW-620; > 100 µM (inactive) in the assay with UACC-62.

`CCOC(=O)C1=C(C)N(C2OC(COC(C)=O)C(OC(C)=O)C(OC(C)=O)C2OC(C)=O)C(=O)NC1c1ccccc1` (stereo unspecified): the GI50 was > 100 µM (inactive) with A549; 83.9 µM (inactive) with CAKI-1; > 100 µM (inactive) in the assay with HCT-116; more than 100 µM with HCT-15; > 100 µM (inactive) with HL-60; > 100 µM (inactive) with HOP-62. For the same molecule, the GI50 was > 100 µM (inactive) in the assay on HT-29; > 100 µM (inactive) with IGROV-1; > 100 µM (inactive) in the assay on K562; > 100 µM (inactive) in the assay on KM12; 20 µM (inactive) in the assay on NCI-H522; > 100 µM (inactive) with OVCAR-5. Further, the GI50 with RPMI-8226 is 4.84 µM (inactive); with SF-268, > 100 µM (inactive); in the assay on SK-MEL-28, > 100 µM (inactive); with SK-MEL-2 it was > 100 µM (inactive); in the assay on SK-MEL-5, > 100 µM (inactive); with SW-620, > 100 µM (inactive). In addition, in the assay on UACC-62, the GI50 is > 100 µM (inactive).

For `COc1cc(C(O)(CC#N)c2cc3c(cc2Br)OCO3)cc(OC)c1OC` (stereo unspecified), the GI50 in the assay with A549 is 22.9 µM (inactive); in the assay with CAKI-1 it was 29.1 µM (inactive); in the assay with HCT-116 it was 40.6 µM (inactive); in the assay with HOP-62 it was 1.63 µM (inactive); with HOP-92 it was > 100 µM (inactive); in the assay on HT-29 it was 25.4 µM (inactive). In addition, the GI50 is 20.9 µM (inactive) with IGROV-1; 48 µM (inactive) in the assay with K562; 21 µM (inactive) with KM12; 17.4 µM (inactive) in the assay on OVCAR-5; 50.7 µM (inactive) in the assay with RPMI-8226; 28.2 µM (inactive) in the assay with SF-268. For the same molecule, the GI50 is 23.4 µM (inactive) in the assay with SK-MEL-28, 47 µM (inactive) in the assay on SK-MEL-2, 40.3 µM (inactive) in the assay on SW-620 and 24.9 µM (inactive) with UACC-62.

Regarding `CSc1cc(=O)n2c3ccccc3c3ccnc1c32`, the GI50 in the assay with A549 was > 100 µM (inactive); in the assay with HCT-116 it was > 100 µM (inactive); in the assay on HCT-15, 39.7 µM; with HL-60, > 100 µM (inactive); in the assay on HOP-62, 35.5 µM (inactive); in the assay with HOP-92, 65.3 µM (inactive). Moreover, the GI50 with HT-29 was > 100 µM (inactive); in the assay with IGROV-1 it was 25.7 µM (inactive); in the assay with K562, > 100 µM (inactive); in the assay on KM12 it was > 82.2 µM (inactive); with NCI-H522, > 81.8 µM (inactive); with OVCAR-5, 97.1 µM (inactive). Besides, the GI50 was > 90.8 µM (inactive) with RPMI-8226; > 49.9 µM (inactive) with SF-268; > 100 µM (inactive) in the assay on SK-MEL-28; > 100 µM (inactive) in the assay on SK-MEL-2; 43.4 µM (inactive) in the assay with SK-MEL-5; > 100 µM (inactive) with SW-620. In addition, the GI50 in the assay with UACC-62 was 41.4 µM (inactive).

As for `CNNC1=NS(=O)(=O)c2cc(C)c(Cl)cc2S1`, the GI50 in the assay on A549 was > 10 µM (inactive); with CAKI-1 it was > 10 µM (inactive); in the assay on HCT-116 it was > 10 µM (inactive); in the assay on HCT-15, more than 10 µM; with HL-60, > 10 µM (inactive); with HOP-62 it was > 10 µM (inactive). The GI50 in the assay on HT-29, in the assay on IGROV-1, in the assay with K562, in the assay with KM12, in the assay with NCI-H522 and in the assay on OVCAR-5 was > 10 µM (inactive) throughout. The GI50 in the assay on RPMI-8226, with SF-268, with SK-MEL-28, with SK-MEL-2, with SK-MEL-5 and in the assay on SW-620 was > 10 µM (inactive) each time. In addition, the GI50 in the assay on UACC-62 was > 10 µM (inactive).

For the molecule `CCOC(=O)c1ccc(N2C(=O)/C(=C/c3ccc(N(CCC#N)CCC#N)cc3)N=C2c2cc([N+](=O)[O-])ccc2Cl)cc1`, the GI50 with A549 was > 100 µM (inactive); in the assay with CAKI-1, > 100 µM (inactive); in the assay with HCT-116, > 100 µM (inactive); in the assay with HCT-15, more than 100 µM; in the assay with HOP-62, > 100 µM (inactive); in the assay on HOP-92 it was > 100 µM (inactive). The GI50 in the assay with IGROV-1, with K562, in the assay with KM12, in the assay with NCI-H522, with OVCAR-5 and in the assay on RPMI-8226 was > 100 µM (inactive) in each case. The GI50 is > 100 µM (inactive) with SF-268; > 100 µM (inactive) with SK-MEL-28; > 100 µM (inactive) in the assay with SK-MEL-2; > 100 µM (inactive) with SK-MEL-5; > 100 µM (inactive) in the assay on SW-620; 93.3 µM (inactive) with UACC-62.

`O=C1C(Cl)N(c2ccc(Cl)cc2)C1c1c[nH]c2ccccc12` (stereo unspecified): the GI50 in the assay with A549 was 33.7 µM (inactive); in the assay on HCT-116, 13.8 µM (inactive); with HL-60, 15.8 µM (inactive); in the assay with HOP-62, 17.7 µM (inactive); with HOP-92, 22.5 µM (inactive); with HT-29, 17.1 µM (inactive). Further, the GI50 with IGROV-1 was 16.7 µM (inactive); in the assay with K562 it was 16.7 µM (inactive); in the assay with KM12, 27 µM (inactive); with NCI-H522, 17.2 µM (inactive); with RPMI-8226, 20.6 µM (inactive); in the assay with SF-268 it was 26.2 µM (inactive). Also, the GI50 was 24.8 µM (inactive) in the assay with SK-MEL-28; 14.5 µM (inactive) in the assay on SK-MEL-2; 15.5 µM (inactive) in the assay on SK-MEL-5; 26 µM (inactive) in the assay with SW-620; 14.9 µM (inactive) in the assay on UACC-62.

As for `CCCCc1ccc(N2C(=O)c3cc([N+](=O)[O-])cnc3S2(=O)=O)cc1`, the GI50 in the assay with A549 is > 100 µM (inactive); in the assay on CAKI-1, > 100 µM (inactive); in the assay on HCT-116 it was > 100 µM (inactive); with HCT-15, more than 100 µM; in the assay on HOP-62, > 100 µM (inactive); with HOP-92, 0.424 µM (active). Further, the GI50 with HT-29, in the assay on IGROV-1, in the assay with K562, with KM12, in the assay with OVCAR-5 and in the assay on RPMI-8226 was > 100 µM (inactive) throughout. Moreover, the GI50 with SF-268 is 24.2 µM (inactive); in the assay on SK-MEL-28, > 100 µM (inactive); in the assay on SK-MEL-2, 23.3 µM (inactive); with SK-MEL-5, > 100 µM (inactive); in the assay with SW-620 it was > 100 µM (inactive); in the assay with UACC-62, > 100 µM (inactive).

As for `COc1ccc(CCN(C)C2CCC(C#N)(c3ccc(OC)c(OC)c3)CC2)cc1OC` (stereo unspecified), the GI50 in the assay with A549 is > 100 µM (inactive); with HCT-116 it was 85.3 µM (inactive); with HCT-15, more than 100 µM; in the assay on HL-60, 71 µM (inactive); in the assay with HOP-62, > 100 µM (inactive); in the assay on HOP-92 it was 38.9 µM (inactive). Also, the GI50 in the assay with HT-29 is 34.4 µM (inactive); in the assay on IGROV-1 it was > 100 µM (inactive); with K562 it was 39.1 µM (inactive); in the assay with KM12 it was > 100 µM (inactive); in the assay on NCI-H522, > 10 µM (inactive); with OVCAR-5, > 100 µM (inactive). The GI50 in the assay on RPMI-8226 is 54 µM (inactive); in the assay with SF-268, > 100 µM (inactive); in the assay with SK-MEL-28 it was 83.8 µM (inactive); in the assay with SK-MEL-2, > 100 µM (inactive); with SK-MEL-5 it was 56.9 µM (inactive); with SW-620, > 100 µM (inactive). In addition, in the assay on UACC-62, the GI50 is > 100 µM (inactive).
